From patent US8058243B2, “Method for treating a brain cancer with ifenprodil” (HSC Research and Development Limited Partnership, priority 2006, dated 2011) come the findings set out here.

The subject of the assay is murine neural precursor cells (neurosphere cultures). Nature of the assay: HTS of LOPAC library against secondary neurosphere cultures, MTT proliferation assay at 3 μM, day 7 (z score, P value). It counts as cell-based, mouse. (Tetrazolium dyes change colour on reduction, which living cells bring about.)
Where [1] appears, read: LOPAC primary screen, neurosphere MTT proliferation, 3 μM, day 7.
[2] abbreviates: yes = significantly inhibited neurosphere proliferation (P<0.01) in the primary screen.
Setting [3] is: LOPAC library screen, 3 μM, MTT, neurosphere cultures.
Setting [4] is: yes/no: significantly inhibited neurosphere proliferation in primary screen.
Setting [5] is: LOPAC library screen, 3 μM, MTT, secondary neurosphere cultures, day 7.
Where [6] appears, read: yes/no: significantly inhibited neurosphere proliferation in the primary screen.
[7] abbreviates: yes/no: significantly inhibited neurosphere proliferation (P<0.01) in primary screen.
Setting [8] is: LOPAC screen, neurosphere MTT proliferation, 3 μM, day 7.

Where a name gives a salt, the structure may show the parent alone. Read-outs that look alike come from different tables or passages of the source.

Take `C[C@](N)(CCP(=O)(O)O)C(=O)O.Cl` [(S)-MAP4 hydrochloride]: the “Z Score” value is listed as −0.5525. This molecule also registered a Z score under setting [1] of −0.553. For the same molecule, under setting [2], the Activity result is “no”.

`CC(C)NCC(O)COc1cccc2[nH]ccc12` (stereo not shown) [Pindolol]: the “Z Score” value under setting [3] is recorded as −0.07895. The Z score under setting [1] is listed as −0.079. Also, the Activity entry under setting [4] was “no”.

`CC(C)NCC(O)c1ccc(NS(C)(=O)=O)cc1.Cl` (racemic) [(±)-Sotalol hydrochloride] had a Z score under setting [1] of −0.813. For the same molecule, the Activity entry under setting [4] is listed as “no”.

As for `COc1cc(C=C(C#N)C#N)cc(O)c1O` [Tyrphostin AG 34], the “Z Score” value under setting [5] is given as −2.319. The molecule also returned a Z score under setting [1] of −2.319. Moreover, under setting [4], the Activity entry is “no”.

For the molecule S(−)-Willardiine, the “Z Score” value worked out at 1.251. For the same molecule, the Z score (primary LOPAC screen, 3 μM, MTT, neurosphere proliferation) stood at 1.251. For the same molecule, under setting [6], the Activity result is recorded as “no”.

On to `CCCc1c(OCCCOc2ccc(OCC(=O)O)cc2)ccc(C(C)=O)c1O` [L-165,041], for which the “Z Score” value is on record as 0.3062. The same molecule yielded a Z score under setting [1] of 0.306. Besides, the Activity entry under setting [7] is “no”.

`C(=C\c1ccccc1)/CN1CCN(C(c2ccccc2)c2ccccc2)CC1` [Cinnarizine]: the “Z Score” value under setting [5] is listed as −1.375. Under setting [8], this molecule had a Z score of −1.375.

For `CCCn1c(=O)c2c(ncn2C)n(CCC)c1=O` [1,3-Dipropyl-7-methylxanthine], under “168 h, 3 µM”, the “Z Score” value is −0.08896 and the Z score is listed as −0.089. Further, under setting [7], the Activity entry is “no”.

Turning to `N[C@@H](Cc1c[nH]c2ccccc12)C(=O)O` [L-Tryptophan], the Activity entry is given as “no”, the “Z Score” value amounted to 0.2241 and the Z score worked out at 0.224.

With `Br.Oc1ccc(C2CNCc3sccc32)cc1O` (stereo not shown) [SKF 89626], the Activity result is given as “no” and the “Z Score” value is −0.04369. The molecule also registered a Z score under setting [1] of −0.044.

The molecule `C=C(C)[C@@H]1CC=C(C(=O)O)CC1` [(−)-Perilic acid] yielded a Z score under setting [1] of −1.321. In addition, the Activity result under setting [4] is “no”.

`Nc1nc2ccc(OC(F)(F)F)cc2s1` [Riluzole]: the “Z Score” value (LOPAC library screen at 3 μM, secondary neurosphere cultures, MTT) is −1.033. This molecule returned a Z score under setting [1] of −1.033.

Take `COC(=O)C1=C(C)NC(C)=C(C(=O)OCCN(C)Cc2ccccc2)C1c1cccc([N+](=O)[O-])c1` (stereo not shown) [Nicardipine hydrochloride]: the “Z Score” value (LOPAC library screen at 3 μM, MTT, secondary neurosphere cultures, screened in singlets) is 1.869. Under setting [1], the Z score is recorded as 1.869. Also, under setting [2], the Activity entry was “no”.

With `CCCC1O[C@@H]2C[C@H]3[C@@H]4CCC5=CC(=O)C=C[C@]5(C)[C@H]4[C@@H](O)C[C@]3(C)[C@]2(C(=O)CO)O1` (stereo partly shown) [Budesonide], the “Z Score” value under setting [5] is on record as −1.994. Moreover, the Z score under setting [8] is on record as −1.994.

As to `COc1cc(C(O)C(=O)O)ccc1O` (racemic) [(±)-Vanillylmandelic acid], the Z score (168 h, 3 µM) is given as −1.811. Also, under setting [7], the Activity result is “no”.

As to `O=C1CC[C@@]2(O)[C@H]3Cc4ccc(O)c5c4[C@@]2(CCN3CC2CC2)[C@H]1O5` [Naltrexone hydrochloride], the “Z Score” value under setting [3] was 0.3891. Under setting [1], this molecule gave a Z score of 0.389. Further, the Activity entry (yes/no: significantly inhibited neurosphere proliferation (P<0.01) in the primary screen) was “no”.

In the case of `Cl.NCCCCNS(=O)(=O)c1ccc2c(Cl)cccc2c1` [N-(4-Aminobutyl)-5-chloro-2-naphthalenesulfonamide hydrochloride], the “Z Score” value (168 h, 3 µM) was −0.9229.

On to `Cl.NC1(C(=O)O)CCCCC1` [1-Amino-1-cyclohexanecarboxylic acid hydrochloride], for which, for the setting “168 h, 3 µM”, the “Z Score” value was −0.7495 and the Z score is listed as −0.749. For the same molecule, under setting [6], the Activity entry is reported as “no”.

For the molecule `C[C@]12CC[C@@H](O)C[C@@H]1CC[C@@H]1[C@@H]2CC[C@]2(C)C(=O)CC[C@@H]12` [Androsterone], the Activity entry was “no”, the “Z Score” value was found to be 1.947 and the Z score is reported as 1.947.

Consider `NCc1cc(=O)[nH]o1` [Muscimol hydrobromide], for which the “Z Score” value stood at 0.1863. In addition, the Z score under setting [1] is 0.186. Further, the Activity entry under setting [7] is “no”.
